According to ChEMBL document CHEMBL1201862, “PubChem BioAssay data set” (2004):
Active and inactive are the calls of the source.

Columns and labels:
[1] = target: Cytochrome P450 2D6 (Homo sapiens, UniProt P10635);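 note: CYP2D6 member of a cytochrome P450 panel assay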
[2] = target: T1, DNA repair protein RAD52 homolog (Homo sapiens, UniProt P43351); format: functional, biochemical
T1 sequence (P43351 whole entry): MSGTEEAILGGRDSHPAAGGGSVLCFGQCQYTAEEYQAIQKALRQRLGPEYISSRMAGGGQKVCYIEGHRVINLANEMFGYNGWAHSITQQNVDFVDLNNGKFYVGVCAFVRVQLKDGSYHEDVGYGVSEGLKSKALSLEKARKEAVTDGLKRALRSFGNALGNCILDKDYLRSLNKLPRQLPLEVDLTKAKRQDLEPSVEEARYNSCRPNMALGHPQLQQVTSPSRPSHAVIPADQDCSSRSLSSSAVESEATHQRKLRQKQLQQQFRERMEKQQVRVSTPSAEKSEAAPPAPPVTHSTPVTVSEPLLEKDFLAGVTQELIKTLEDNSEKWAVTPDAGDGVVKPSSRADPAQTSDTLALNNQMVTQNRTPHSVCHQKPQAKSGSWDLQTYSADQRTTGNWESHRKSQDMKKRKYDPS

[3] = target: T2, DNA repair and recombination protein RAD54-like (Homo sapiens, UniProt Q92698); test: RAD54 Holliday junction migration blockers – biochemical, fluorescence, cherry-picked samples, dose series, confirmation (AID 651657); format: functional
T2 sequence (Q92698 whole entry): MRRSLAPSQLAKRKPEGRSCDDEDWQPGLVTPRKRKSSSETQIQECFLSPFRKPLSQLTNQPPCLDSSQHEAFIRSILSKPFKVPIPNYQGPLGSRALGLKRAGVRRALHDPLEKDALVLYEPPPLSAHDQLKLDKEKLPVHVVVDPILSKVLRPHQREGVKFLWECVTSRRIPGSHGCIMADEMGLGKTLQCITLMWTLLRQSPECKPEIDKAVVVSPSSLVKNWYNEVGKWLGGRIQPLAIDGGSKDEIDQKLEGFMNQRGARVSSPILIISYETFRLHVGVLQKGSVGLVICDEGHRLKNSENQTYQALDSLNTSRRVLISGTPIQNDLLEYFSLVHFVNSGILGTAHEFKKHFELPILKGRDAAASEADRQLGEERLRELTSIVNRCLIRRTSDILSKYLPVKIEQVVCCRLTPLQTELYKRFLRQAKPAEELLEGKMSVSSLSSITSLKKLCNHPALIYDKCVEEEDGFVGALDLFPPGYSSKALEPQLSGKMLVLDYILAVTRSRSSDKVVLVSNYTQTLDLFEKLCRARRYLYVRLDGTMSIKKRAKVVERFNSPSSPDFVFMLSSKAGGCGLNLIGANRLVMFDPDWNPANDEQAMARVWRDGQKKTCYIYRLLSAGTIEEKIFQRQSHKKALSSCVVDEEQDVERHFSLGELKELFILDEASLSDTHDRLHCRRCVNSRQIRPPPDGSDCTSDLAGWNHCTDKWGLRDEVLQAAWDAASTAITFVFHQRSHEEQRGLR

[4] = target: T3, Cytochrome P450 3A4 (Homo sapiens, UniProt P08684);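 note: CYP3A4 tested as one member of a cytochrome P450 panel screen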
[5] = target: T4, Cytochrome P450 2C9 (Homo sapiens, UniProt P11712)
[6] = target: T3, Cytochrome P450 3A4; remark: listed apart in the source
[7] = blockers of CRF-binding protein–CRF-R2 complex – cell-based, uHTS hits, 384-well, dose response (AID 651639); format: functional, Homo sapiens; details: read-out: IC50_Mean
[8] = target: T5, Corticotropin-releasing factor receptor 2/Corticotropin-releasing factor-binding protein (Homo sapiens, UniProt P24387+Q13324); test: Dose Response confirmation of uHTS hits for small molecule antagonists of the CRF-binding protein and CRF-R2 receptor complex.; format: functional; details: read-out: IC50_Mean
T5 sequence (Q13324 whole entry): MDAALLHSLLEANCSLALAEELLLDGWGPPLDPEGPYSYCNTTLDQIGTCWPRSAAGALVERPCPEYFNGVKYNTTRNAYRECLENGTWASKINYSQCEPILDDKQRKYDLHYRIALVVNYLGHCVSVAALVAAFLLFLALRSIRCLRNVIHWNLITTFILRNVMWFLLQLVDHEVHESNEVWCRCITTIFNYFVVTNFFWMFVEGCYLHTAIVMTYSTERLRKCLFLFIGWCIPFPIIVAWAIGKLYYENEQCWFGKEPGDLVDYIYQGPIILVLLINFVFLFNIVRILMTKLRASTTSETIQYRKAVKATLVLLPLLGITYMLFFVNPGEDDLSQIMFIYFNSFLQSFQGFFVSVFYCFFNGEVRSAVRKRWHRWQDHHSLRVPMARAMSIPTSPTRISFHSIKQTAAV
T5 sequence (P24387 whole entry): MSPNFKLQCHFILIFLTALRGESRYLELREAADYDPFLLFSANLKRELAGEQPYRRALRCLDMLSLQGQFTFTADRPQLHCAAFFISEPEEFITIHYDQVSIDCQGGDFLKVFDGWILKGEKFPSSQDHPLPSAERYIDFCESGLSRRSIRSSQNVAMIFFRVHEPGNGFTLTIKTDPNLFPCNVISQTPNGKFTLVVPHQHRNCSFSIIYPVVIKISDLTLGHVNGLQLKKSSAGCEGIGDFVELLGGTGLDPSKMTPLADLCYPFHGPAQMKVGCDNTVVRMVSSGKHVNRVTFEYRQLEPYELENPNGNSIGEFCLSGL

[9] = target: T5, Corticotropin-releasing factor receptor 2/Corticotropin-releasing factor-binding protein; test: activators of CRF receptor 2 with binding protein – uHTS hits, confirmation (AID 602473); format: functional; details: read-out: EC50_Mean
[10] = target: Tumor necrosis factor (Homo sapiens, UniProt P01375); test: analog potency on TNFa NF-kB signaling – cell-based, revised, SAR follow-up (AID 2337); format: functional
[11] = test system: HEK293; test: cells; details: Homo sapiens;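 note: cells exposed to compound for 14 hours overnight before viability readout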
[12] = target: T4, Cytochrome P450 2C9; remark: listed apart in the source
[13] = alpha-synuclein stem-loop luciferase translation blockers – H4 neuroglioma cells, luminescence, confirmation (AID 1988); format: functional, cell-based
[14] = Luminescence Cell-Based Dose Response HTS to Identify Inhibitors of 5'UTR Stem-Loop Driven Prion Protein mRNA Translation in H4 Neuroglioblastoma Cells. [Related pubchem assays: 1827 (Project Summary), 1813 (Primary HTS)]; format: functional
[15] = luciferase reporter signal suppression in cells – H4 neuroglioma cells, luminescence, dose response (AID 1990); format: functional, cell-based
[16] = target: Eukaryotic translation initiation factor 4E (Mus musculus, UniProt P63073); test: blockers of eIF4G binding by eIF4E – biochemical, TR-FRET, dose response (AID 855); format: functional;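 note: potency for disrupting eIF4E binding to eIF4GI seen as loss of FRET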
[17] = target: Cytochrome P450 2C19 (Homo sapiens, UniProt P33261); test: Cytochrome panel assay with activity outcomes. Panel member name: p450-cyp2c19 Compounds with AC50 equal or less than 10 uM are considered active; format: functional
[18] = target: T6, Cytochrome P450 1A2 (Homo sapiens, UniProt P05177);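 note: PubChem cytochrome P450 panel assay, CYP1A2 panel member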
T6 sequence (P05177 whole entry): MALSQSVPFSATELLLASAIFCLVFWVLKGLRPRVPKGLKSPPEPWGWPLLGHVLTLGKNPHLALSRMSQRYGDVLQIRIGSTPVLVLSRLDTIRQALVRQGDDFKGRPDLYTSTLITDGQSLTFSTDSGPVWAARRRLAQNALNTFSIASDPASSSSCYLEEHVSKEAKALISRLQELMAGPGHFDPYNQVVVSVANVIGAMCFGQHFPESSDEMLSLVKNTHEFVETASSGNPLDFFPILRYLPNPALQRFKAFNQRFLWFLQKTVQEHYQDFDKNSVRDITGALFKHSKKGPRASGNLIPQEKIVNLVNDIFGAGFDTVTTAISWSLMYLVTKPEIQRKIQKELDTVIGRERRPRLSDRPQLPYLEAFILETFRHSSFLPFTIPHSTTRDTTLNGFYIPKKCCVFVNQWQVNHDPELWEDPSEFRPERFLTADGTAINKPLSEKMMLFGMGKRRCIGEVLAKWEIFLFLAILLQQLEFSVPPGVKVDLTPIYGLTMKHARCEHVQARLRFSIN

[19] = Trypanosoma cruzi growth suppression in host cells – NIH3T3 host cells, beta-gal luminescence, confirmation (AID 2044); format: functional, cell-based;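 note: intracellular parasites grown in NIH/3T3 mouse fibroblasts as host cells; luminescent beta-galactosidase reporter signal from transgenic T. cruzi replicating inside host cells; inhibitors lower the luminescence signal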
[20] = NIH3T3 cell viability loss – ATP luminescence, mouse fibroblasts, counter-screen, dose response (AID 2010); format: functional, cell-based; details: NIH3T3;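 note: cells exposed to compound for about 90 hours before reading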

Chain of Cytochrome P450 2D6 (P10635 whole entry): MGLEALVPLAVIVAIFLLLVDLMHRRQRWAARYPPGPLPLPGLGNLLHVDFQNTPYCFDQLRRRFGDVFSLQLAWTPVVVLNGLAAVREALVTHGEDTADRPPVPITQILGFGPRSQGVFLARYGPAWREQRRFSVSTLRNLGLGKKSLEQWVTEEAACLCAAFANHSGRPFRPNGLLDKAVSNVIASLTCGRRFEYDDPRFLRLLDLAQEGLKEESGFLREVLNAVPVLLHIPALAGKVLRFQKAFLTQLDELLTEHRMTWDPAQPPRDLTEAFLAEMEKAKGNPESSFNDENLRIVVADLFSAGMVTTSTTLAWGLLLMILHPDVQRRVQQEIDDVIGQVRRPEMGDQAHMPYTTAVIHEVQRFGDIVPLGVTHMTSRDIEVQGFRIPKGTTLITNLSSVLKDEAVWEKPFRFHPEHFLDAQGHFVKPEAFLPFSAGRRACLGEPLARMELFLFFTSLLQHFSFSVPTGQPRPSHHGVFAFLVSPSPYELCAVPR
T3 sequence (P08684 whole entry): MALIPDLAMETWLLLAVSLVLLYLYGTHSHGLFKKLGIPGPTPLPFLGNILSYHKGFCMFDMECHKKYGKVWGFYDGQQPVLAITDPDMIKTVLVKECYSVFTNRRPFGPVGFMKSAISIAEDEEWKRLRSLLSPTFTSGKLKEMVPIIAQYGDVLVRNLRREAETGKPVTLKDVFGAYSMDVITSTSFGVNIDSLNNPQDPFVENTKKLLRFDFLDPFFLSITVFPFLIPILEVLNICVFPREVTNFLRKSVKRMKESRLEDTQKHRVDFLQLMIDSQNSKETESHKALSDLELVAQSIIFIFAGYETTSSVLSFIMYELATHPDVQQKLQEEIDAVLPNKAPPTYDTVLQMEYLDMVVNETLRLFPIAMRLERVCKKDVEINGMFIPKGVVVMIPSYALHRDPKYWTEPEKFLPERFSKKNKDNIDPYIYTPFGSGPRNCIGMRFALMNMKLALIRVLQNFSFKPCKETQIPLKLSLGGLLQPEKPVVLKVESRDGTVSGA
T4 sequence (P11712 whole entry): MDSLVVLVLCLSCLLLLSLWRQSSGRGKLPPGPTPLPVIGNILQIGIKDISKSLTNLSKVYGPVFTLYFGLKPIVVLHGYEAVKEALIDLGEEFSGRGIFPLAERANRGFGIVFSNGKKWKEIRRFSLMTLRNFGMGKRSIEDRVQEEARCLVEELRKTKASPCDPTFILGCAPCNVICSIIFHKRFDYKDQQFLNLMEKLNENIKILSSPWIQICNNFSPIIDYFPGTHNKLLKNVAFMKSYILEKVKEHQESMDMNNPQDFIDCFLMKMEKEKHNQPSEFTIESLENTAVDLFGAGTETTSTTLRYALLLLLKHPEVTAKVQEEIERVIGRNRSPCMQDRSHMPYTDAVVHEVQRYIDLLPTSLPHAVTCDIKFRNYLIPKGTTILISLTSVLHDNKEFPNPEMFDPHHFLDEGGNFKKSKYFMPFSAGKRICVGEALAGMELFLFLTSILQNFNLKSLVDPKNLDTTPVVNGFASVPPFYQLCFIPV
Chain of Eukaryotic translation initiation factor 4E (P63073 whole entry): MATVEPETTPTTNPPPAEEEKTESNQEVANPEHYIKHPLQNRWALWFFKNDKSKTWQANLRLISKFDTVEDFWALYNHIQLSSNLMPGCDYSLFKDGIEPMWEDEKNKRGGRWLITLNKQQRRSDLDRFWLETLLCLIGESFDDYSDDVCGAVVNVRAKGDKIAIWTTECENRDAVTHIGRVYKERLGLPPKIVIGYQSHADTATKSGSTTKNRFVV
Chain of Cytochrome P450 2C19 (P33261 whole entry): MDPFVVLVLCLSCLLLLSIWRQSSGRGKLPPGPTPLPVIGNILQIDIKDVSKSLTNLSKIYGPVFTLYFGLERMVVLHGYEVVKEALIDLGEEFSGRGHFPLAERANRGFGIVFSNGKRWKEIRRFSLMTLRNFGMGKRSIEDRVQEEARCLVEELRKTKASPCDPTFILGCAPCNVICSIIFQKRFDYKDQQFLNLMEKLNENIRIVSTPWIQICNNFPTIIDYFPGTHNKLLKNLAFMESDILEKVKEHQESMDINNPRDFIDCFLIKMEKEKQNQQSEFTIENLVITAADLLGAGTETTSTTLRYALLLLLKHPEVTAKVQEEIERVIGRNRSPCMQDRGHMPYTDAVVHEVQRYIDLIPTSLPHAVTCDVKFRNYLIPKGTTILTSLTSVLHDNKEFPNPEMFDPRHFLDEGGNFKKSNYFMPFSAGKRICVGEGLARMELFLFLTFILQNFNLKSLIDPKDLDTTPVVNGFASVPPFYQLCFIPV
Chain of Tumor necrosis factor (P01375 whole entry): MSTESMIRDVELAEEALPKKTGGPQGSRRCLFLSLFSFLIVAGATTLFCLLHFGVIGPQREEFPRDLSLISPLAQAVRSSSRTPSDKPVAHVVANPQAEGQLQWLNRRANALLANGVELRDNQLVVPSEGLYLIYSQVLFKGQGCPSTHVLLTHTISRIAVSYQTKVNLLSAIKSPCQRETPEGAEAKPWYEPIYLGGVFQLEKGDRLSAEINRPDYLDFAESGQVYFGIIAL

SMILES: CN(C)CCNc1nc2c(c(=O)n(C)c(=O)n2C)n1C
- AC50 [1]: inconclusive

SMILES: CCOC(=O)c1cnc2c(C)cc(C)cc2c1NCCCN1CCOCC1
- AC50 [2]: 11.4 µM (active)
- AC50 [3]: 5.48 µM (active)

SMILES: Cc1ccc2nc3c(cc(C(=O)NCCN4CCOCC4)c(=N)n3CCCN3CCOCC3)c(=O)n2c1
- AC50 [3]: 29.5 µM (active)

SMILES: COC(=O)N1CCC2(CC1)CCN(C(c1ccccc1)c1ccccc1)CC2
- AC50 [4]: inconclusive
- AC50 [5]: 39.8 µM (inconclusive)

SMILES: CCN1C(=O)[C@H]2[C@H]3[C@H](O)[C@H](O)C/C(=N/OC[C@@H](C)[C@H](OCc4ccccc4)C(C)C)[C@@H]3CC[C@@H]2C1=O
- AC50 [6]: 3.98 µM (inconclusive)
- AC50 [1]: inconclusive

SMILES: COc1ccc(C(C(=O)NC2CCCC2)N(C(=O)c2ccoc2C)c2cc(C)cc(C)c2)cc1 (stereo unspecified)
- IC50 [7]: > 20 µM (inactive)
- IC50 [8]: 5.69 µM (active)
- EC50 [9]: > 53 µM (inactive)

SMILES: CCC(=O)N1CCc2cc(S(=O)(=O)N3CCN(c4ccc([N+](=O)[O-])cc4)CC3)ccc21
- IC50 [10]: > 20 µM (inactive)
- IC50 [11]: > 20 µM (inactive)

SMILES: O=C(O)[C@H]1CCN1
- AC50 [4]: inconclusive
- AC50 [12]: inconclusive

SMILES: COc1ccc(-c2c(C)nn3c(N)c(C#N)cnc23)cc1OC
- EC50 [13]: > 120 µM (not active)
- EC50 [14]: > 120 µM (not active)
- EC50 [15]: 50.1 µM (active)
- IC50 [16]: 50 µM (inactive)

SMILES: Cc1ccccc1NC(=O)Cc1nc(COC(=O)c2cc([N+](=O)[O-])ccc2NCCO)cs1
- IC50 [7]: 13.8 µM (active)
- IC50 [8]: 23.2 µM (active)
- EC50 [9]: > 53 µM (inactive)

SMILES: Nc1nc(Cl)cc(NCCO)n1
- AC50 [17]: inconclusive
- AC50 [1]: inconclusive

SMILES: CCc1nnc(NC(=O)Cc2ccc(OCc3c(C)noc3C)cc2)s1
- IC50 [16]: > 64 µM (inactive)

SMILES: Cc1cc2c(cc1C)-c1nnc(-c3ccc4ccccc4n3)n1C(C)(C)C2
- AC50 [4]: inconclusive
- AC50 [12]: inconclusive
- AC50 [18]: 5.01 µM (inconclusive)

SMILES: Cc1ccc(S(=O)(=O)c2nnn3c2nc(N2CCCCC2)c2ccccc23)cc1
- IC50 [7]: 10 µM (active)
- IC50 [8]: 2.96 µM (active)
- EC50 [19]: 1.14 µM (active)
- EC50 [20]: > 60 µM (inconclusive)
- EC50 [9]: > 53 µM (inactive)

SMILES: CN(C)CCNC(=O)c1cccc(-c2cnc3c(NC=O)cc(-c4ccc(F)cc4)cn23)c1
- AC50 [2]: 3.96 µM (active)
- AC50 [3]: 17.7 µM (active)

SMILES: CNC(=S)NNC(=O)COc1ccccc1C
- AC50 [1]: inconclusive

SMILES: CC(C)COc1ccc(C(=O)Nc2scc(-c3ccc(Cl)cc3Cl)c2C(N)=O)cc1
- EC50 [19]: 1.76 µM (active)
- EC50 [20]: > 60 µM (not active)
- AC50 [4]: inconclusive

SMILES: N#Cc1cccc(NC(=O)N2CCC3(CC2)CCN(C(=O)c2ccco2)CC3)c1
- AC50 ([17]; read-out: AC50): 20 µM (inconclusive)
- AC50 [4]: inconclusive
